Results: paper PMC7898037, “Improving mitochondria and ER stability helps eliminate upper motor neuron degeneration that occurs due to mSOD1 toxicity and TDP‐43 pathology” (Clinical and Translational Medicine, 2021)

Assays:
[1] = tested on: UMNs in the motor cortex of prpTDP‐43^A315T‐UeGFP mice; experiment: UMN quantification in motor cortex, prpTDP‐43^A315T‐UeGFP mice; type: in vivo
Method: (§1) hSOD1^G93A‐UeGFP, prpTDP‐43^A315T‐UeGFP and WT‐UeGFP mice were weighed and the required NU‐9 dose per weight was calculated (20 or 100 mg/kg), which was administered once daily by oral gavage, starting at postnatal day (P)60 and continuing until P120. Animals from the untreated group received the vehicle (NMP and olive oil) only. For oral administration purposes, 20 ga × 38 mm plastic feeding tubes were used (Instech Laboratories, Inc). The gavage tip was inserted into the mouth directly over the tongue and into the pharynx. While observing the swallowing reflex, the tip was safely and smoothly slid into the esophagus. Once the administration was completed, the gavage tip was pulled straight out.
Since UMNs are genetically labeled with eGFP expression in the motor cortex of WT‐UeGFP, hSOD1^G93A‐UeGFP, and prpTDP‐43^A315T‐UeGFP mice, UMNs were identified based on the GFP expression. Quantitative analyses were performed on three matched rostrocaudal sections spanning the motor cortex. Three images per subject were taken to capture a 4× objective filed that encompass layer 5 of the motor cortex. An inverted epifluorescent Eclipse TE2000‐E microscope (Nikon) with the same exposure time and intensity was used. UMNs were counted only if their soma and apical dendrite were both visualized in the same 50‐µm thick section. Images were analyzed in ImageJ (NIH) using the Find maxima processing command to determine the local maxima within a predetermined region of interest that circumscribes the layer 5 of the motor cortex. A universal noise tolerance, which ignores the local maxima corresponding to background and autofluorescence, was applied to all images.

WT‐UeGFP mice = experiment: Rotarod test, WT‐UeGFP mice; type: in vivo; parameters: Rotarod, Mean Diff. (vehicle minus NU-9) / Rotarod, mean difference G vehicle vs. G NU-9 (20) / Rotarod, mean difference G vehicle vs. G NU-9 (100): unit not given here; conditions: for Rotarod, group mean (Mean 1 / Mean 2 of 2way ANOVA multiple comparisons): WT-UeGFP (G); for Rotarod, group mean (Mean 1 / Mean 2) / Rotarod, Mean Diff. (vehicle minus NU-9): WT-UeGFP mice; for Rotarod, Average / Rotarod, mean difference G vehicle vs. G NU-9 (20) / Rotarod, mean difference G vehicle vs. G NU-9 (100): WT-UeGFP; for Rotarod, mean difference G vehicle vs. G NU-9 (20): vehicle minus NU-9 20 mg/kg/day; for Rotarod, mean difference G vehicle vs. G NU-9 (100): vehicle minus NU-9 100 mg/kg/day
Method: as §1
Behavior data were collected from hSOD1^G93A‐UeGFP and WT‐UeGFP mice (starting at P60 and every 7 days until P116) and from prpTDP‐43^A315T‐UeGFP mice (at P60, P90, and P120) with the following number of mice for each group: WT‐UeGFP vehicle (n = 10), hSOD1^G93A‐UeGFP vehicle (n = 6), WT‐UeGFP 20 mg/kg/day NU‐9 (n = 5), hSOD1^G93A‐UeGFP 20 mg/kg/day NU‐9 (n = 7), WT‐UeGFP 100 mg/kg/day NU‐9 (n = 11), hSOD1^G93A‐UeGFP 100 mg/kg/day NU‐9 (n = 9), prpTDP‐43^A315T‐UeGFP untreated (n ≥ 3), and prpTDP‐43^A315T‐UeGFP 100 mg/kg/day NU‐9 (n = 4) (Table S3).
Mice were placed on a rotating rod that accelerates linearly from 4 to 40 rpm (Rotarod, Ugo Basile), and the average time spent on the rotating rod for three consecutive trials was calculated for each mouse. Mice were allowed to run for a maximum of 5 min with a 5 min rest period between each run, and the latency to fall was recorded for three consecutive trials. The average of the three trials was taken as the data point for each mouse at the age tested, and the performance of different groups are reported as the mean ± SEM.

In the case of `C[C@H](Oc1cc(C(F)(F)F)cc(C(F)(F)F)c1)C1CC(=O)CC(=O)C1` [NU‐9], the “Mean Diff., Fig. 7H, GT Untreated vs. GT NU-9 (100)” value ([1]; prpTDP43A315T-UeGFP untreated minus NU-9 100 mg/kg/day, Tukey's multiple comparisons test) is reported as -22.58, the “Mean, Fig. 7H (UMN quantification in motor cortex)” value ([1]; prpTDP-43A315T-UeGFP mice, NU-9 100 mg/kg/day) is reported as 59.17 and the “average number of UMNs in the motor cortex” value ([1]; prpTDP‐43^A315T‐UeGFP mice, 100 mg/kg/day oral gavage P60–P120) is reported as 59 ± 3 UMNs. For the same compound, the “Rotarod, group mean (Mean 1 / Mean 2 of 2way ANOVA multiple comparisons)” value (WT‐UeGFP mice; NU-9 20 mg/kg/day, P102) was 295.1, the “Rotarod, group mean (Mean 1 / Mean 2 of 2way ANOVA multiple comparisons)” value (WT‐UeGFP mice; NU-9 20 mg/kg/day, P109) was 291 and the “Rotarod, group mean (Mean 1 / Mean 2 of 2way ANOVA multiple comparisons)” value (WT‐UeGFP mice; NU-9 20 mg/kg/day, P116) was 298.9. The “Rotarod, group mean (Mean 1 / Mean 2 of 2way ANOVA multiple comparisons)” value (WT‐UeGFP mice; NU-9 100 mg/kg/day, P102) was 251.4, the “Rotarod, group mean (Mean 1 / Mean 2 of 2way ANOVA multiple comparisons)” value (WT‐UeGFP mice; NU-9 100 mg/kg/day, P109) was 241.3 and the “Rotarod, group mean (Mean 1 / Mean 2 of 2way ANOVA multiple comparisons)” value (WT‐UeGFP mice; NU-9 100 mg/kg/day, P116) was 221.3. For the same compound, the “Rotarod, group mean (Mean 1 / Mean 2)” value (WT‐UeGFP mice; NU-9 20 mg/kg/day, P60) was 260.7, the “Rotarod, group mean (Mean 1 / Mean 2)” value (WT‐UeGFP mice; NU-9 20 mg/kg/day, P67) was 279.2 and the “Rotarod, group mean (Mean 1 / Mean 2)” value (WT‐UeGFP mice; NU-9 20 mg/kg/day, P74) was 295.3. For the same compound, the “Rotarod, group mean (Mean 1 / Mean 2)” value (WT‐UeGFP mice; NU-9 20 mg/kg/day, P81) was 286.1, the “Rotarod, group mean (Mean 1 / Mean 2)” value (WT‐UeGFP mice; NU-9 20 mg/kg/day, P88) was 285.5 and the “Rotarod, group mean (Mean 1 / Mean 2)” value (WT‐UeGFP mice; NU-9 20 mg/kg/day, P95) was 279.3. For the same compound, the “Rotarod, group mean (Mean 1 / Mean 2)” value (WT‐UeGFP mice; NU-9 100 mg/kg/day, P60) was 250.1, the “Rotarod, group mean (Mean 1 / Mean 2)” value (WT‐UeGFP mice; NU-9 100 mg/kg/day, P67) was 261.4 and the “Rotarod, group mean (Mean 1 / Mean 2)” value (WT‐UeGFP mice; NU-9 100 mg/kg/day, P74) was 261.2. The “Rotarod, group mean (Mean 1 / Mean 2)” value (WT‐UeGFP mice; NU-9 100 mg/kg/day, P81) was 258.5, the “Rotarod, group mean (Mean 1 / Mean 2)” value (WT‐UeGFP mice; NU-9 100 mg/kg/day, P88) was 256.5 and the “Rotarod, group mean (Mean 1 / Mean 2)” value (WT‐UeGFP mice; NU-9 100 mg/kg/day, P95) was 262.2. For the same compound, the “Rotarod, Mean Diff. (vehicle minus NU-9)” value (WT‐UeGFP mice; vehicle vs. NU-9 20 mg/kg/day, P60) was 10.27, the “Rotarod, Mean Diff. (vehicle minus NU-9)” value (WT‐UeGFP mice; vehicle vs. NU-9 20 mg/kg/day, P67) was -0.9667 and the “Rotarod, Mean Diff. (vehicle minus NU-9)” value (WT‐UeGFP mice; vehicle vs. NU-9 20 mg/kg/day, P74) was -13.73. For the same compound, the “Rotarod, Mean Diff. (vehicle minus NU-9)” value (WT‐UeGFP mice; vehicle vs. NU-9 20 mg/kg/day, P81) was -2.267, the “Rotarod, Mean Diff. (vehicle minus NU-9)” value (WT‐UeGFP mice; vehicle vs. NU-9 20 mg/kg/day, P88) was -1.533 and the “Rotarod, Mean Diff. (vehicle minus NU-9)” value (WT‐UeGFP mice; vehicle vs. NU-9 20 mg/kg/day, P95) was 5.033. For the same compound, the “Rotarod, Mean Diff. (vehicle minus NU-9)” value (WT‐UeGFP mice; vehicle vs. NU-9 20 mg/kg/day, P102) was -24.77, the “Rotarod, Mean Diff. (vehicle minus NU-9)” value (WT‐UeGFP mice; vehicle vs. NU-9 20 mg/kg/day, P109) was -17.03 and the “Rotarod, Mean Diff. (vehicle minus NU-9)” value (WT‐UeGFP mice; vehicle vs. NU-9 20 mg/kg/day, P116) was -40.09. For the same compound, the “Rotarod, Mean Diff. (vehicle minus NU-9)” value (WT‐UeGFP mice; vehicle vs. NU-9 100 mg/kg/day, P60) was 20.91, the “Rotarod, Mean Diff. (vehicle minus NU-9)” value (WT‐UeGFP mice; vehicle vs. NU-9 100 mg/kg/day, P67) was 16.81 and the “Rotarod, Mean Diff. (vehicle minus NU-9)” value (WT‐UeGFP mice; vehicle vs. NU-9 100 mg/kg/day, P74) was 20.39. For the same compound, the “Rotarod, Mean Diff. (vehicle minus NU-9)” value (WT‐UeGFP mice; vehicle vs. NU-9 100 mg/kg/day, P81) was 25.41, the “Rotarod, Mean Diff. (vehicle minus NU-9)” value (WT‐UeGFP mice; vehicle vs. NU-9 100 mg/kg/day, P88) was 27.48 and the “Rotarod, Mean Diff. (vehicle minus NU-9)” value (WT‐UeGFP mice; vehicle vs. NU-9 100 mg/kg/day, P95) was 22.09. The “Rotarod, Mean Diff. (vehicle minus NU-9)” value (WT‐UeGFP mice; vehicle vs. NU-9 100 mg/kg/day, P102) was 18.94, the “Rotarod, Mean Diff. (vehicle minus NU-9)” value (WT‐UeGFP mice; vehicle vs. NU-9 100 mg/kg/day, P109) was 32.69 and the “Rotarod, Mean Diff. (vehicle minus NU-9)” value (WT‐UeGFP mice; vehicle vs. NU-9 100 mg/kg/day, P116) was 37.47. For the same compound, the “Rotarod, Average” value (WT‐UeGFP mice; NU-9 20 mg/kg/day po, P60) was 260.733 s, the “Rotarod, Average” value (WT‐UeGFP mice; NU-9 20 mg/kg/day po, P67) was 279.2 s and the “Rotarod, Average” value (WT‐UeGFP mice; NU-9 20 mg/kg/day po, P74) was 295.333 s. The “Rotarod, Average” value (WT‐UeGFP mice; NU-9 20 mg/kg/day po, P81) was 286.133 s, the “Rotarod, Average” value (WT‐UeGFP mice; NU-9 20 mg/kg/day po, P88) was 285.467 s and the “Rotarod, Average” value (WT‐UeGFP mice; NU-9 20 mg/kg/day po, P95) was 279.267 s. For the same compound, the “Rotarod, Average” value (WT‐UeGFP mice; NU-9 20 mg/kg/day po, P102) was 295.133 s, the “Rotarod, Average” value (WT‐UeGFP mice; NU-9 20 mg/kg/day po, P109) was 291 s and the “Rotarod, Average” value (WT‐UeGFP mice; NU-9 20 mg/kg/day po, P116) was 298.867 s. The “Rotarod, Average” value (WT‐UeGFP mice; NU-9 100 mg/kg/day po, P60) was 250.091 s, the “Rotarod, Average” value (WT‐UeGFP mice; NU-9 100 mg/kg/day po, P67) was 261.424 s and the “Rotarod, Average” value (WT‐UeGFP mice; NU-9 100 mg/kg/day po, P74) was 261.212 s. For the same compound, the “Rotarod, Average” value (WT‐UeGFP mice; NU-9 100 mg/kg/day po, P81) was 258.455 s, the “Rotarod, Average” value (WT‐UeGFP mice; NU-9 100 mg/kg/day po, P88) was 256.455 s and the “Rotarod, Average” value (WT‐UeGFP mice; NU-9 100 mg/kg/day po, P95) was 262.212 s. For the same compound, the “Rotarod, Average” value (WT‐UeGFP mice; NU-9 100 mg/kg/day po, P102) was 251.424 s, the “Rotarod, Average” value (WT‐UeGFP mice; NU-9 100 mg/kg/day po, P109) was 241.273 s and the “Rotarod, Average” value (WT‐UeGFP mice; NU-9 100 mg/kg/day po, P116) was 221.303 s. For the same compound, the “Rotarod, mean difference G vehicle vs. G NU-9 (20)” value (WT‐UeGFP mice; P102) was -24.77, the “Rotarod, mean difference G vehicle vs. G NU-9 (20)” value (WT‐UeGFP mice; P109) was -17.03 and the “Rotarod, mean difference G vehicle vs. G NU-9 (20)” value (WT‐UeGFP mice; P116) was -40.09. The “Rotarod, mean difference G vehicle vs. G NU-9 (100)” value (WT‐UeGFP mice; P102) was 18.94, the “Rotarod, mean difference G vehicle vs. G NU-9 (100)” value (WT‐UeGFP mice; P109) was 32.69 and the “Rotarod, mean difference G vehicle vs. G NU-9 (100)” value (WT‐UeGFP mice; P116) was 37.47.
